Where two headings read alike, the source gives them in different places.
Experiments:
[1] = test system: anti-OVA IgM and IgG antibodies; assay: OVA evaluation system: adjuvant activity in antibody titer in mice; type: in vivo; conditions: GGPPS inhibitors 100 μg with OVA, right sole, Day 7 and Day 14
Description: OVA evaluation system was used to determine adjuvant activity in antibody titer.
Mice of C57B/6 strain were used. The mice in the experimental group were injected with the obtained mixture of each of the statins and OVA antigen through soles injection, with 20 μl for each mouse. The mice in the control group were injected with a 1:1 mixture of PBS or DMSO (10 μl) and 10 μl OVA antigen (PBS or DMSO is 10 μl, respectively, and the antigen is 10 μl) through soles injection, with 20 μl for each mouse. On Day 7 and Day 14 after immunization, blood was taken from the mice's orbits, with 100 μl was taken from each mouse. The obtained blood was left at 4° C. overnight, and centrifuged at 6000 rpm for 8 min. The supernatant serum was removed and the titers of anti-OVA IgM and IgG antibodies in the serum were determined.
Test of the OVA antibody titer: The OVA protein was diluted to a concentration of 2 μg/ml with a carbonate solution of pH 9.6, coated in a 96-well ELISA plate at 50 μl per well, and left at 4° C. overnight. The ELISA plate was washed five times with PBS containing 0.05% Tween 20, blocked with 1% BSA solution at 200 μl per well, and incubated at room temperature for 2 h. The ELISA plate was washed five times with PBST (Phosphate Buffered Saline with Tween), a 2-fold serial dilution of the mouse serum after immunized with OVA was added at 50 μl per well and incubated at room temperature for 2 h. After the ELISA plate was washed five times with PBST, HRP (horseradish peroxidase)-labeled goat-anti-mouse IgM or IgG antibody was added and incubated at room temperature for 45 min. The ELISA plate was washed five times with PBST, and a color developing solution of sodium citrate OPD (o-phenylenediamine) was added. After 10 min of color development in the dark, sulfuric acid was added to terminate the reaction. The reading was performed with ELIASA OD490. The maximum serum dilution factor, when the ratio of light absorptions of the experimental group to the control group was >2.0, was the titer of the anti-OVA antibody in the serum.
Each test compound was formulated at a concentration of 2 mg/ml and the concentration of OVA antigen was 2 mg/ml. Each compound was mixed with OVA at 1:1. Each C57B/6 mouse in the experimental group was injected with 100 μl of the mixture (containing 50 μl of the antigen and 50 μl of the compound) by intramuscular injection at the right thigh. On Day 7 and Day 14 after immunization, blood was taken from the mice's orbit, and 100 μl was taken for each mouse. The obtained blood was allowed to stand at 4° C. overnight, and centrifuged at 6000 rpm for 8 min. The supernatant serum was removed, and the titers of anti-OVA IgM and IgG antibodies in the serum were determined.
Method: each of the test compounds (the 10 bisphosphonates as described above) was mixed with the OVE antigen at 1:1, and the concentrations of bisphosphonic acid and OVA were both 10 mg/ml. Mice of C57B/6 strain were used. The mice in the experimental group were injected with the mixture of each of the test compounds and OVA antigen through soles injection, with 20 μl for each mouse, and wherein the amounts of OVA antigen and each of the test compounds were both 100 ug. The mice in the control group were injected with a 1:1 mixture of […] and 10 μl OVA antigen through sole injection. On Day 7 and Day 14 after immunization, blood was taken from the mice's orbits, and 100 μl was taken from each mouse.
The obtained blood was left at 4° C. overnight, and centrifuged at 6000 rpm for 8 min. The supernatant serum was removed, and the titers of anti-OVA IgM and IgG antibodies in the serum were determined.
Method: TH-Z144 and TH-Z145 were prepared at the concentration of 10 mg/ml, the concentration of OVA antigen was also 10 mg/ml, and the compound and the antigen were mixed at 1:1. Mice of C57B/6 strain were used.

[2] = target: HsGGPPS (humanized geranylgeranyl pyrophosphate synthase) (Homo sapiens (Human), UniProt O95749); assay: HsGGPPS enzyme inhibition test; type: biochemical
Description: The inhibitory activities of compounds TH-Z144 and TH-Z145 on GGPPS (geranylgeranyl pyrophosphate synthase) were tested by referring to the expression and purification method for HsGGPPS (humanized geranylgeranyl pyrophosphate synthase) in the reference (Szabo, C. M., et al., Inhibition of Geranylgeranyl Diphosphate Synthase by Bisphosphonates and Diphosphates: A Potential Route to New Bone Antiresorption and Antiparasitic Agents. Journal of Medicinal Chemistry, 2002. 45 (11): p. 2185-2196.) and the method for testing enzyme activity in the reference (Zhang, Y., et al., Lipophilic Bisphosphonates as Dual Farnesyl/Geranylgeranyl Diphosphate Synthase Inhibitors: An X-ray and NMR Investigation. Journal of the American Chemical Society, 2009. 131 (14): p. 5153-5162.) The data of the activity test were as follows: […]

[3] = target: humanized farnesyl pyrophosphate synthase (HsFPPS) (Homo sapiens (Human), UniProt P14324); assay: In vitro HsFPPS enzyme activity assay; type: biochemical
Description: The measurement method is briefly described as follows: the expression of HsFPPS with 6 consecutive His at the N-terminus was induced in vitro, collected, and purified by Ni column. An in vitro HsFPPS enzyme activity assay was performed in a 96-well plate with 200 μl of solution per well. The buffer of the system was 25 mM HEPES, 2.5 mM MgCl2, pH 7.4. Using DMAPP and IPP as reaction substrates, the change of the UV value at a wavelength of 360 nm was monitored in real time in a phosphate lyase system. The ORIGIN 8.0 software was used to plot and fit. The IC50 values for the inhibition of FPPS by the TH-Z80 series of compounds were shown in the following table, in micromoles per liter (μM).
(§1) HsFPPs with 6 consecutive His at the N-terminus was induced to express in vitro, collected, and purified by Ni column. In vitro HsFPPs enzymatic activity assay was performed in a 96-well plate at 200 μl of solution per well. The buffer of the system was 25 mM HEPES, 2.5 mM MgCl2, pH 7.4. Using DMAPP and IPP as reaction substrates, the changes of UV at 360 nm were monitored in real-time in phosphate lyase system. ORIGIN 8.0 software was used to plot and fit.

[4] = test system: PvGGPPS (geranylgeranyl pyrophosphate synthase from Plasmodium); assay: In vitro PvGGPPS enzymatic activity assay; type: biochemical; conditions: GPP and IPP substrates
Description: as §1, with “PvGGPPs” for “HsFPPs”, “GPP” for “DMAPP”, “a” for “the changes of UV at”, “continuous spectrophotometric detection was performed” for “were monitored”, “a” for “real-time in”

[5] = test system: Plasmodium falciparum 3D7; assay: Test of plasmodium activity (SYBR-GREEN1); type: cell-based; conditions: infected erythrocytes, 72 hours; read-out: Malaria (IC50/μM)
Description: Plasmodium falciparum 3D7 was cultured with […] medium mixed with 10% human O-type blood serum and 25 mM HEPES. The cultivation process was maintained in a carbon dioxide incubator under 5% carbon dioxide. In vitro drug testing experiments were performed on a 96-well plate. The test drug was dissolved in PBS and pre-diluted with complete medium. Infected erythrocytes were cultured in triplicate for 72 hours in 3-fold serial dilutions of drug. Then an equal amount of SYBR-GREEN1 was added to each well. The detection was then performed at 485 nm for excitation light and 538 nm for emitted light. […] ORIGIN 8.0 software was used to plot and fit.

MDA-MB-231 cells = assay: MDA-MB-231 proliferation MTT test; type: cell-based, human; conditions: 72 hours
Description: • Drug dissolution: […] The prepared bisphosphonate stock solution was diluted with DMEM complete medium. The maximum concentration was 1 mM. The dilution was performed serially in a ratio of 1:3.2 with a total of 11 concentration gradients; a. MDA-MB-231 cells were digested the day before. Centrifugation was performed at 1000 rmp for 3 min. The cells were counted. The cells were seeded into a 96-well plate at 3000 cells/well in a volume of 100 μl per well and cultured for 14-16 h. It should be noted that the cell count should be accurate, and the amount of cells seeded per well should be consistent. The cell suspension can be gently shaken in the intermittence of plating, or a row of cells were plated and the cell suspension was pipetted gently with a pipette. The speed of pipetting into the 96-well plate with a pipette should not be too fast or too slow, in order to avoid uneven distribution of cells in the plate, affecting the experiments; the wells at the fringe of the 96-well plate will evaporate slightly faster and the concentration of the solution will change slightly faster. Under normal situation, the central 60 wells should be selected for stimulation. Also, the pipetted liquid should be prevented from creating bubbles. b. After the cells had adhered, the liquid in the 96-well plate was pipetted out and discarded. […] c. 72 hours after the action of drug, the prepared MTT solution (immediately before use, a certain amount of MTT powder was weighed and dissolved in PBS at 5 mg/ml, under dark, filter with 0.22 filter membrane) was added directly to each well with 20 μl per well and continued to culture for 4 hours; d. The filter paper (which can be replaced by an absorbent paper) was laid, and the plate was inverted gently (be careful to prevent the crystal in the well from dropping). After the liquid in the wells was removed, 150 μl of DMSO was added to dissolve the crystals, and the mixture was shaken thoroughly with a shaker for a period of time just to dissolve the crystals. The absorbance (OD value) of each well was measured at 570 nm with ELIASA. The mean value of blank control was calculated as OD Blank. OD value for each well=OD measured-OD Blank. ODNT mean value was calculated. […] Mean and standard error were then calculated. The mean and standard error of each group of drug concentration (uM) and corresponding drug inhibition rate were fitted by Graph Prism software to obtain the IC50 of the drug.

[6] = test system: anti-OVA IgM and IgG antibodies; assay: Combined adjuvant effect of FPPS inhibitor and TLR agonist, OVA titer; type: in vivo, mice; conditions: soles of right feet
Description: Two compounds, TH-Z93 and Imiquimod, were formulated at a concentration of 4 mg/ml, and OVA antigen at a concentration of 10 mg/ml. When used alone, 5 μl of TH-Z93 or imiquimod was added as an adjuvant and mixed with 10 μl of antigen and 5 μl of PBS. When two adjuvants were used in combination, each of the adjuvants were added in an amount of 5 μl and mixed with 10 μl of antigen, and the total volumes were 20 μl. The mice used are of C57B/6 strain. An equal volume of PBS without any adjuvant was used for mice in the control group. The mice was injected at the soles of the right feet. On Day 7 and Day 14 after immunization, blood was taken from the mice's orbits, and 100 μl was taken for each mouse. The obtained blood was left at 4° C. overnight, and then the serum was separated. The titers of anti-OVA IgM and IgG antibodies in the serum were determined.

Chain of humanized farnesyl pyrophosphate synthase (HsFPPS) (P14324 whole entry, looked up): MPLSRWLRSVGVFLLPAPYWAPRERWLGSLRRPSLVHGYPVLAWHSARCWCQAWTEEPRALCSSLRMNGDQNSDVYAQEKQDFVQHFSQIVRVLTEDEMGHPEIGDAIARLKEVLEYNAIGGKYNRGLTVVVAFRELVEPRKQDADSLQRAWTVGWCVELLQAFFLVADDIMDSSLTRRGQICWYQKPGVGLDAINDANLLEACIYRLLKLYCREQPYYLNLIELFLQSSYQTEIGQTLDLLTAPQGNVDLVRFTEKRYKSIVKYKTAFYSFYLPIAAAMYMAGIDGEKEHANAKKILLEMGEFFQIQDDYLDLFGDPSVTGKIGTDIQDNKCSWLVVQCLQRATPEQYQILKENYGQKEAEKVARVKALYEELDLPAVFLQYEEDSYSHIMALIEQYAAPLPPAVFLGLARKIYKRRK
Chain of HsGGPPS (humanized geranylgeranyl pyrophosphate synthase) (O95749 whole entry, looked up): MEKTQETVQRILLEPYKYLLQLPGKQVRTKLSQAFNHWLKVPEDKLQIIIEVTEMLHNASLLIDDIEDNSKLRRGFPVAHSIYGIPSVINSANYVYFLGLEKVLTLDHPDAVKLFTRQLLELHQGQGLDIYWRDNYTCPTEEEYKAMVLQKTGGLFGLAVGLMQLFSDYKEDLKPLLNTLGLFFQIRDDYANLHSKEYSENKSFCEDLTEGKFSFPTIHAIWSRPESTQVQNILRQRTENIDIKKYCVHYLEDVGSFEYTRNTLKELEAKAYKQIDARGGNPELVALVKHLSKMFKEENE

`CCCCCCOc1cccc(CC(P(=O)(O)O)P(=O)(O)O)c1` [TH-Z144, (2-(3-(hexyloxy)phenyl)ethane-1,1-diyl)bisphosphonic acid] was tested, and the “IgM and IgG antibody titers vs PBS control” value [1] was “significantly higher titers”, the “IC50 (inhibition of GGPPS)” value [2] was “effectively inhibit the activity of GGPPS” and the IC50 ([2]; read-out: IC50 (inhibition of GGPPS)) was 2760 nM.
`CCCCCOc1ccc2c(c1)ncn2CC(O)(P(=O)(O)O)P(=O)(O)O` [TH-Z151] gave an IC50 ([3]; Example 15 table, read-out: HsFPPS (IC50/μM)) of 0.12 µM, an IC50 ([3]; TH-Z80 series, DMAPP and IPP substrates, pH 7.4, read-out: IC50 for inhibition of FPPS) of 0.12 µM and an IC50 [4] of 0.46 µM. For the same molecule, the IC50 [5] was 1.25 µM and the IC50 (MDA-MB-231 cells) was 406000 nM.
`CC(C)Cn1cnc2c(N)nc3ccccc3c21` [imiquimod, reference compound] was tested, and the “antibody titers vs PBS control, adjuvant used alone” value [6] was “significant high titers”.
